Measured values as given in US12064444B2, “Application of tannic acid in preparation of medicament against respiratory viruses” (priority 2020, dated 2024).
Read-outs that look alike come from different tables or passages of the source.

Experiments:
Influenza A H1N1 virus = test: microbe, parasite or virus in culture; details: H1N1, MDCK
in vitro = details: dog
Protocol: (§1) 2. […] The maximum non-toxic concentration (TC0) of the medicament was taken as the minimum dilution times of the medicament without cytopathic changes, and the median toxic concentration (TC50) of the medicament was calculated by the Reed-Muench formula. 3. Experimental results
(§2) • (1) Medicaments: same as Embodiment 5; • (2) Other experimental materials were the same as those in Embodiment 3. 2. Experimental procedure: refer to Embodiment 3. 3. Experimental results

SARS-CoV-2 virus [1] = test: microbe, parasite or virus in culture
SARS-CoV-2 virus [2] = details: SARS-CoV-2, Vero-E6 cells; […]
[3] = Toxicity to African green monkey kidney cells (Vero-E6), CCK-8, 48 hours; details: African green monkey
Text: (§3) • (1) Medicaments: experimental group, tannic acid; control group, Remdesivir (purchased from Shanghai TopScience Technology Co., Ltd.); • (2) Cell line: African green monkey kidney cells (Vero-E6 cells); • (3) Others: MEM medium; 96-well culture plate. 2. […] 3. Experimental results
(§4) • (1) Medicaments: in the experimental group, tannic acid was mixed with catechin, resveratrol, and zinc gluconate according to a mass ratio of 1:1 to prepare into three pharmaceutical compositions; in the control group, Remdesivir (purchased from Shanghai TopScience Technology Co., Ltd.); • (2) Other experimental materials were the same as those in Embodiment 1. 2. Experimental steps: refer to Embodiment 1. 3. Experimental results

[4] = test system: African green monkey kidney cells (Vero-E6 cells); test: as above; details: Vero-E6 cells; for TC0 (maximum non-toxic concentration): 48 hours, CCK-8
Text: as §3, §4

[5] = test system: canine kidney epithelial cells (MDCK cells); test: Toxicity to canine kidney epithelial cells (MDCK), cytopathic changes; details: MDCK cells, cytopathic changes
Protocol: as §1, §2

[6] = Severe acute respiratory syndrome coronavirus 2, Vero C1008, 48 h, read-out: IC50 (median inhibitory concentration)

SMILES	IC50 (Influenza A H1N1 virus; 48 h, read-out: IC50 (median inhibitory concentration)) [µM]	IC50 (Influenza A H1N1 virus; Influenza A H1N1, MDCK cells, compositions, mass ratio 1:1) [µg/mL]	CC50 (in vitro) [µM]	IC50 (SARS-CoV-2 virus [1]; Severe acute respiratory syndrome coronavirus 2, Vero C1008) [µg/mL]	IC50 (SARS-CoV-2 virus [1]; [6]) [µM]	SI (SARS-CoV-2 virus [2])	CC50 at 48 h [3] [µM]	TC0 (maximum non-toxic concentration) [4] [µM]	TC0 ([4]; compositions, mass ratio 1:1) [µg/mL]	TC50 ([4]; compositions, mass ratio 1:1) [µg/mL]	TC0 (maximum non-toxic concentration) [5] [µM]
NC(=O)c1ncn([C@@H]2O[C@H](CO)[C@@H](O)[C@H]2O)n1 [Ribavirin]	22.6 ± 0.04	5.52 ± 0.03	1310	–	–	–	–	–	–	–	–
CCC(CC)COC(=O)[C@H](C)N[P@](=O)(OC[C@H]1O[C@@](C#N)(c2ccc3c(N)ncnn23)[C@H](O)[C@@H]1O)Oc1ccccc1 [Remdesivir]	–	–	–	0.392 ± 0.003	0.651 ± 0.013	162.21	106	52.8	31.816	63.633	–
O=C(OC[C@H]1O[C@@H](OC(=O)c2cc(O)c(O)c(OC(=O)c3cc(O)c(O)c(O)c3)c2)[C@H](OC(=O)c2cc(O)c(O)c(OC(=O)c3cc(O)c(O)c(O)c3)c2)[C@@H](OC(=O)c2cc(O)c(O)c(OC(=O)c3cc(O)c(O)c(O)c3)c2)[C@@H]1OC(=O)c1cc(O)c(O)c(OC(=O)c2cc(O)c(O)c(O)c2)c1)c1cc(O)c(O)c(OC(=O)c2cc(O)c(O)c(O)c2)c1 [Tannic acid, tannic acid]	–	–	752	–	0.0032	–	23.5	11.8	–	–	376.21
